Measurements published in patent US20230117034A1, “PYRAZOLOTRIAZINES” (Bayer Aktiengesellschaft, priority 2019, published 2023).
Like-named read-outs stand apart in the source and are kept apart here.

What was measured:
[1] = system: BRCA1 mRNA expression in MDA-MB-231 cells; assay: qRT-PCR assay: BRCA1 mRNA expression in MDA-MB-231; format: cell-based, human; conditions: median, read-out: RTqPCR-MDA-MB-231, IC50, BRCA1 (median)
Procedure, shortened: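 BRCA1 transcript by RT-qPCR relative to GAPDH, from 600 ng RNA converted to cDNA. MDA-MB-231 cells plated at 200,000/well received test compound continuously for 24 h, starting 24 h post-seeding.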

CDK9/CycT1 = biological target: T1, CDK9/CycT1 (Homo sapiens, UniProt P50750); assay: CDK9/CycT1 high ATP kinase assay (TR-FRET, 2 mM ATP); format: biochemical; conditions: 2 mM ATP (high ATP); median; read-out: CDK9/CyclinT1, 2 mM ATP (high ATP), IC50 (median)
T1 construct: Recombinant full-length His-tagged human CDK9 and CycT1; purchased Life Technologies PV4131; host or cells: insect cells
T1 sequence (P50750 whole entry): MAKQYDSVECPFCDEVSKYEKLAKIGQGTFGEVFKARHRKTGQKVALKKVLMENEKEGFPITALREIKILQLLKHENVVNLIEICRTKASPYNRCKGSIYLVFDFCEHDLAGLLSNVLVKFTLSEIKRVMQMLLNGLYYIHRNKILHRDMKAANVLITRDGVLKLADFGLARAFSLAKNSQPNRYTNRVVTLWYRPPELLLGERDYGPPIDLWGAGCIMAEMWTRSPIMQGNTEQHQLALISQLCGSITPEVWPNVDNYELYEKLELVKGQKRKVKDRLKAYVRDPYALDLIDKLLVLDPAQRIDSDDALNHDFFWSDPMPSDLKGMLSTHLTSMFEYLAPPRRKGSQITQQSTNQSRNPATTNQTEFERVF
T1 sequence (O60563 whole entry partner): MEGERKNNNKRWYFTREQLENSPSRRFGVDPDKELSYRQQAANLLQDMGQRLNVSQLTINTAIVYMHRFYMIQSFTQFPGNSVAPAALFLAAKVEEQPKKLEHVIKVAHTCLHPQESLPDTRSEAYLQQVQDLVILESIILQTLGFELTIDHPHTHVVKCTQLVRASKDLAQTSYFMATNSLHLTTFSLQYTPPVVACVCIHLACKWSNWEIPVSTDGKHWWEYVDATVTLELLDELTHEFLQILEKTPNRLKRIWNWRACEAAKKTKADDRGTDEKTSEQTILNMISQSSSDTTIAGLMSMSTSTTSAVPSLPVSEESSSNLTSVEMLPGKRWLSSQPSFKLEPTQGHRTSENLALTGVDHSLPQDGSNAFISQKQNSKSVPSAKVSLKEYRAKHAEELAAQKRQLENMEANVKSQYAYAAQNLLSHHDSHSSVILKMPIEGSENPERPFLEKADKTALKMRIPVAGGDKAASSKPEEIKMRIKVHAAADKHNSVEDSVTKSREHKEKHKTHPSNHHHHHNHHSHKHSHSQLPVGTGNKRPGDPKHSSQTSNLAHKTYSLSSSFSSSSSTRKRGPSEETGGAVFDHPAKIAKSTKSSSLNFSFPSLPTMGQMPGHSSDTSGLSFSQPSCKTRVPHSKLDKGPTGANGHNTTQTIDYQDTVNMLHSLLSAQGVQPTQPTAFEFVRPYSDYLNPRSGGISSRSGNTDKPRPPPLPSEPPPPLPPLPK
Procedure, shortened: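 Full-length His-tagged human CDK9/CycT1 (insect cell, ~0.5 μg/mL) preincubated 15 min at 22 °C with compound in Tris pH 8.0, MgCl2, DTT buffer before reaction with biotinylated peptide substrate at high ATP (2 mM).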

[2] = system: MDA-MB-231, human breast cancer cells; assay: Proliferation assay MDA-MB-231 (crystal violet, 4 days); format: cell-based; conditions: MDA-MB-231 cells, median, read-out: Prolif-MDA MB-231, IC50-[mol/l] (median)
Procedure, shortened: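 IC50 from a 4-parameter fit of crystal violet absorbance (595 nm), scaled between the day-of-dosing plate (0%) and vehicle cells (100%). MDA-MB-231 or CAL-120 cells were treated for 4 days with 0.01–10 micromol/L compound in 0.1% DMSO after 24 h attachment.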

[3] = Homo sapiens, MDA-MB-231, Inhibition of BRCA1 mRNA expression in MDA-MB-231 cells

Row | Compound | IC50 [1, 3] | IC50 (CDK9/CycT1) | IC50 ([2]; Homo sapiens, MDA-MB-231, 96 h) | IC50 ([1]; Inhibition of BRCA1 mRNA expression in MDA-MB-231 cells) | IC50 [2]
1 | Clc1cc2nc(CNc3nc(N4CC5CCC(C4)N5)nc4c(Br)cnn34)[nH]c2cc1Cl [Example 334, 8-bromo-2-(3,8-diazabicyclo[3.2.1]octan-3-yl)-N-[(5,6-dichloro-1H-benzimidazol-2-yl)methyl]pyrazolo[1,5-a][1,3,5]triazin-4-amine] | 0.00402 µM | 8.14 µM | 0.00218 µM | – | –
2 | CN(CC(C)(C)O)c1nc(NCc2nc3cc(C(F)(F)F)ccc3[nH]2)n2ncc(Br)c2n1 [Example 345, 1-{[8-bromo-4-({[5-(trifluoromethyl)-1H-benzimidazol-2-yl]methyl}amino)pyrazolo[1,5-a][1,3,5]triazin-2-yl](methyl)amino}-2-methylpropan-2-ol] | 0.00283 µM | 6.24 µM | 0.00344 µM | – | –
3 | Cc1cc2nc(CNc3nc(N(C)CC(C)(C)O)nc4c(C5CC5)cnn34)[nH]c2cc1C [Example 321, 1-[(8-cyclopropyl-4-{[(5,6-dimethyl-1H-benzimidazol-2-yl)methyl]amino}pyrazolo[1,5-a][1,3,5]triazin-2-yl)(methyl)amino]-2-methylpropan-2-ol] | 0.0013 µM | 7.3 µM | 0.00245 µM | – | –
4 | Cc1cc2nc(CNc3nc(N4CCOCC4)nc4c(C5CC5)cnn34)[nH]c2cc1C [Example 320, 8-cyclopropyl-N-[(5,6-dimethyl-1H-benzimidazol-2-yl)methyl]-2-(morpholin-4-yl)pyrazolo[1,5-a][1,3,5]triazin-4-amine] | 0.00359 µM | > 20 µM | 0.00417 µM | – | –
5 | Brc1cnn2c(NCc3nc4ccccc4[nH]3)nc(N3C[C@H]4CC[C@@H]3CO4)nc12 (single isomer, unassigned; enantiomer 2) [Example 391, N-[(1H-benzimidazol-2-yl)methyl]-8-bromo-2-{[1R or S-(1R*,4R*)]-2-oxa-5-azabicyclo[2.2.2]octan-5-yl}pyrazolo[1,5-a][1,3,5]triazin-4-amine (Enantiomer 2)] | – | > 20 µM | – | 0.00377 µM | 0.0261 µM
6 | CN1C2CCC1CN(c1nc(NCc3nc4c(F)cccc4[nH]3)n3ncc(C(F)(F)F)c3n1)C2 [Example 384, N-[(4-fluoro-1H-benzimidazol-2-yl)methyl]-2-(8-methyl-3,8-diazabicyclo[3.2.1]octan-3-yl)-8-(trifluoromethyl)pyrazolo[1,5-a][1,3,5]triazin-4-amine] | 0.0136 µM | > 20 µM | 0.00848 µM | – | –
7 | FC(F)(F)Oc1cccc2[nH]c(CNc3nc(N4C[C@H]5CC[C@@H](C4)N5)nc4c(Br)cnn34)nc12 [Example 381, 8-bromo-2-[(1R,5S)-3,8-diazabicyclo[3.2.1]octan-3-yl]-N-{[4-(trifluoromethoxy)-1H-benzimidazol-2-yl]methyl}pyrazolo[1,5-a][1,3,5]triazin-4-amine] | – | 14 µM | 0.0435 µM | – | –
8 | CN(CC(C)(C)O)c1nc(NCc2nc3cc(F)c(Cl)cc3[nH]2)n2ncc(Br)c2n1 [Example 338, 1-[(8-bromo-4-{[(6-chloro-5-fluoro-1H-benzimidazol-2-yl)methyl]amino}pyrazolo[1,5-a][1,3,5]triazin-2-yl)(methyl)amino]-2-methylpropan-2-ol] | 0.0013 µM | 8.3 µM | 0.0031 µM | – | –
9 | CN(c1nc(NCc2nc3ccccc3[nH]2)n2ncc(Br)c2n1)[C@H]1C[C@H](O)C1 [Example 365, trans-3-[(4-{[(1H-benzimidazol-2-yl)methyl]amino}-8-bromopyrazolo[1,5-a][1,3,5]triazin-2-yl)(methyl)amino]cyclobutan-1-ol] | – | > 20 µM | 0.118 µM | – | –
10 | CN(CC(C)(C)O)c1nc(NCc2nc3c(F)cccc3[nH]2)n2ncc(Cl)c2n1 [Example 366, 1-[(8-chloro-4-{[(4-fluoro-1H-benzimidazol-2-yl)methyl]amino}pyrazolo[1,5-a][1,3,5]triazin-2-yl)(methyl)amino]-2-methylpropan-2-ol] | 0.0271 µM | > 20 µM | 0.0571 µM | – | –
11 | Fc1cc2nc(CNc3nc(N4CCOCC4)nc4c(Br)cnn34)[nH]c2cc1Cl [Example 336, 8-bromo-N-[(6-chloro-5-fluoro-1H-benzimidazol-2-yl)methyl]-2-(morpholin-4-yl)pyrazolo[1,5-a][1,3,5]triazin-4-amine] | 0.008 µM | – | 0.00427 µM | – | –
12 | CC[C@H](COC)Nc1nc(NCc2nc3ccccc3[nH]2)n2ncc(Br)c2n1 [Example 369, N4-[(1H-benzimidazol-2-yl)methyl]-8-bromo-N2-[(2R)-1-methoxybutan-2-yl]pyrazolo[1,5-a][1,3,5]triazine-2,4-diamine] | – | > 20 µM | 0.297 µM | – | –
13 | Cc1[nH]c(CNc2nc(N3CCOCC3)nc3c(Br)cnn23)nc1-c1ccccc1 [Example 27, 8-bromo-N-[(5-methyl-4-phenyl-1H-imidazol-2-yl)methyl]-2-(morpholin-4-yl)pyrazolo[1,5-a][1,3,5]triazin-4-amine] | 0.165 µM | 14.7 µM | – | – | –
14 | CC(C)c1cnn2c(NCc3ncc(-c4ccccc4)[nH]3)nc(N3CCOCC3)nc12 [Example 30, 2-(morpholin-4-yl)-N-[(5-phenyl-1H-imidazol-2-yl)methyl]-8-(propan-2-yl)pyrazolo[1,5-a][1,3,5]triazin-4-amine] | 0.0285 µM | > 20 µM | – | – | –
15 | CN1CCN(c2nc(NCc3nc4cc(OC(F)(F)F)ccc4[nH]3)n3ncc(Br)c3n2)CC1 [Example 377, 8-bromo-2-(4-methylpiperazin-1-yl)-N-{[5-(trifluoromethoxy)-1H-benzimidazol-2-yl]methyl}pyrazolo[1,5-a][1,3,5]triazin-4-amine] | – | > 20 µM | 0.116 µM | – | –
16 | CN1CCC(Oc2nc(NCc3nc4ccccc4[nH]3)n3ncc(Br)c3n2)CC1 [Example 389, N-[(1H-benzimidazol-2-yl)methyl]-8-bromo-2-[(1-methylpiperidin-4-yl)oxy]pyrazolo[1,5-a][1,3,5]triazin-4-amine] | – | > 20 µM | 0.332 µM | – | –
17 | CN1CCN(c2nc(NCc3nc4c(OC(F)(F)F)cccc4[nH]3)n3ncc(Br)c3n2)CC1 [Example 376, 8-bromo-2-(4-methylpiperazin-1-yl)-N-{[4-(trifluoromethoxy)-1H-benzimidazol-2-yl]methyl}pyrazolo[1,5-a][1,3,5]triazin-4-amine] | – | > 20 µM | 0.102 µM | – | –
18 | Fc1ccc2[nH]c(CNc3nc(N4CC5CCC(C4)N5)nc4c(Cl)cnn34)nc2c1F.O=CO [Example 360, formic acid 8-chloro-2-(3,8-diazabicyclo[3.2.1]octan-3-yl)-N-[(4,5-difluoro-1H-benzimidazol-2-yl)methyl]pyrazolo[1,5-a][1,3,5]triazin-4-amine] | 0.00103 µM | – | 0.00567 µM | – | –
19 | CC[C@@H](CO)Nc1nc(NCc2nc3ccccc3[nH]2)n2ncc(Br)c2n1 [Example 367, (2S)-2-[(4-{[(1H-benzimidazol-2-yl)methyl]amino}-8-bromopyrazolo[1,5-a][1,3,5]triazin-2-yl)amino]butan-1-ol] | – | 17.6 µM | 0.0841 µM | – | –
20 | Cc1ccnc2[nH]c(CNc3nc(N4CCN(C)CC4)nc4c(C(C)C)cnn34)nc12 [Example 32, N-[(7-methyl-3H-imidazo[4,5-b]pyridin-2-yl)methyl]-2-(4-methylpiperazin-1-yl)-8-(propan-2-yl)pyrazolo[1,5-a][1,3,5]triazin-4-amine] | – | > 20 µM | – | – | –
21 | CCNc1nc(NCc2nc(-c3ccc(C)cc3)c[nH]2)n2ncc(Br)c2n1 [Example 26, 8-bromo-N^2-ethyl-N^4-{[4-(4-methylphenyl)-1H-imidazol-2-yl]methyl}pyrazolo[1,5-a][1,3,5]triazine-2,4-diamine] | 0.0744 µM | 8.74 µM | – | – | –
22 | CC[C@H](CO)Nc1nc(NCc2nc3ccccc3[nH]2)n2ncc(Br)c2n1 [Example 368, (2R)-2-[(4-{[(1H-benzimidazol-2-yl)methyl]amino}-8-bromopyrazolo[1,5-a][1,3,5]triazin-2-yl)amino]butan-1-ol] | – | > 20 µM | 0.173 µM | – | –
23 | CN(CC(C)(C)O)c1nc(NCc2nc3cc(OC(F)(F)F)ccc3[nH]2)n2ncc(Br)c2n1 [Example 378, 1-{[8-bromo-4-({[5-(trifluoromethoxy)-1H-benzimidazol-2-yl]methyl}amino)pyrazolo[1,5-a][1,3,5]triazin-2-yl](methyl)amino}-2-methylpropan-2-ol] | – | 12.7 µM | 0.0964 µM | – | –
24 | CN1CCCN(c2nc(NCc3nc4ccccc4[nH]3)n3ncc(Br)c3n2)CC1 [Example 390, N-[(1H-benzimidazol-2-yl)methyl]-8-bromo-2-(4-methyl-1,4-diazepan-1-yl)pyrazolo[1,5-a][1,3,5]triazin-4-amine] | – | > 20 µM | 0.176 µM | – | –
25 | FC(F)(F)Oc1cccc2[nH]c(CNc3nc(N4CCOCC4)nc4c(Br)cnn34)nc12 [Example 375, 8-bromo-2-(morpholin-4-yl)-N-{[4-(trifluoromethoxy)-1H-benzimidazol-2-yl]methyl}pyrazolo[1,5-a][1,3,5]triazin-4-amine] | – | 14.5 µM | 0.142 µM | – | –
